# Results published in patent US20250296959A1, “B7-H3 TARGETING PEPTIDES AND CONSTRUCTS THEREOF” (Mariana Oncology Inc., priority 2024, published 2025).
# pKd: −log10 of the molar value. Starred links: 1 amine or outer side, 2 acyl side, 3 side chain; linkers in the order of their positions; H or OH if unused. Positions of bridges follow the written chain, without caps; N, C: chain ends. Non-standard residues stand in square brackets, D forms with d. Residues, ends and D or L forms follow the SMILES beside them. Groups on a side chain read outwards from the residue. *: point of attachment. Ala(piperidin-4-yl) = O=C([C@H](CC1CCN([*:3])CC1)N[*:1])[*:2]; DOTA = O=C(O)CN1CCN(CC(=O)O)CCN(CC(=O)*)CCN(CC(=O)O)CC1; Trp(5-F) = N[C@@H](Cc1c[nH]c2ccc(F)cc12)C(=O)O; Trp(5-Me) = Cc1ccc2[nH]cc(C[C@H](N)C(=O)O)c2c1; γGlu = O=C(O)[C@H](CCC(=O)[*:2])N[*:1]; 1Nal = N[C@@H](Cc1cccc2ccccc12)C(=O)O; Ala(4-THP) = N[C@@H](CC1CCOCC1)C(=O)O; Phe(2-F) = N[C@@H](Cc1ccccc1F)C(=O)O; Ile(3-Me) = CCC(C)(C)[C@H](N)C(=O)O; Val(3-OH) = CC(C)(O)[C@H](N)C(=O)O; hCha = N[C@@H](CCC1CCCCC1)C(=O)O; Tle = CC(C)(C)[C@H](N)C(=O)O; hLeu = CC(C)CC[C@H](N)C(=O)O; Dab = NCC[C@H](N)C(=O)O; PEG2 = NCCOCCOCCC(=O)O
# Biological target: T1, human 4lg B7-H3 (Homo sapiens, UniProt Q5ZPR3)
# T1 sequence (Q5ZPR3 29-534): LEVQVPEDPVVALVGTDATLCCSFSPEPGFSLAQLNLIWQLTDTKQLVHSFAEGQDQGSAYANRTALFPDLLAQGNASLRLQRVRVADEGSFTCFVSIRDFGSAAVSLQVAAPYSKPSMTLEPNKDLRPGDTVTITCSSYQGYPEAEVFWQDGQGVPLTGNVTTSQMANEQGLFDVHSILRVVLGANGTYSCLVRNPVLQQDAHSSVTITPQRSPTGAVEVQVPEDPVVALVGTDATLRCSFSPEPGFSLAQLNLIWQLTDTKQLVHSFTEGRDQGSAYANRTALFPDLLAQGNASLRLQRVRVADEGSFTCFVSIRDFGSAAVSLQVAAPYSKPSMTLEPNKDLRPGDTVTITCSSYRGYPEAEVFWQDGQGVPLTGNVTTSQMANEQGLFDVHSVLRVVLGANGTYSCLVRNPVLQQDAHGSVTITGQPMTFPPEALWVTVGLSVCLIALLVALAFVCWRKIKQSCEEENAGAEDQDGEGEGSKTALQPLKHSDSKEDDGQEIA
# Test: Affinity determination by surface plasmon resonance (SPR) to 4Ig B7-H3
# Conditions: SPR KD—37° C., 4Ig B7-H3; 37° C. flow cell temperature
row,SMILES,pKd
1,"CCC(C)(C)[C@@H]1NC(=O)[C@@H](NC(=O)[C@H](Cc2ccc(O)cc2)NC(=O)[C@H](CCC(C)C)NC(C)=O)CSSC[C@@H](C(=O)N[C@@H](Cc2c[nH]c3ccc(F)cc23)C(=O)N[C@@H](Cc2ccccc2)C(=O)N[C@H](C(=O)N[C@H](CCCCNC(=O)CN2CCN(CC(=O)O)CCN(CC(=O)O)CCN(CC(=O)O)CC2)C(=O)O)C(C)(C)O)NC(=O)[C@H](Cc2ccc(O)cc2)NC(=O)[C@H](C(C)C)NC(=O)[C@H](CC(=O)O)NC(=O)[C@H](CC2CCOCC2)NC(=O)[C@H](CC2CCNCC2)NC(=O)CNC1=O [compound 432, Ac-hLeu-Y-C-betaMelle-G-PipAla-ThpA-D-V-Y-C-5FW-F-hydroxyVal-dLys(DOTA)-COOH] (Ac-[hLeu]YC[Ile(3-Me)]G[Ala(piperidin-4-yl)][Ala(4-THP)]DVYC[Trp(5-F)]F[Val(3-OH)][dK](DOTA)-OH; disulfide 3-11)",> 9.00
2,"CC(=O)N[C@@H](CCC(C)C)C(=O)N[C@@H](Cc1ccc(O)cc1)C(=O)N[C@H]1CSSC[C@@H](C(=O)N[C@@H](Cc2cccc3ccccc23)C(=O)N[C@@H](Cc2ccccc2)C(=O)N[C@H](C(=O)N[C@H](CCCCNC(=O)CN2CCN(CC(=O)O)CCN(CC(=O)O)CCN(CC(=O)O)CC2)C(=O)O)C(C)(C)O)NC(=O)[C@H](Cc2ccc(O)cc2)NC(=O)[C@H](C(C)C)NC(=O)[C@H](CC(=O)O)NC(=O)[C@H](CC2CCOCC2)NC(=O)[C@H](CCN)NC(=O)CNC(=O)[C@H](C(C)(C)C)NC1=O [compound 435, Ac-hLeu-Y-C-Tbg-G-Dab-ThpA-D-V-Y-C-1Nal-F-hydroxyVal-dLys(DOTA)-COOH] (Ac-[hLeu]YC[Tle]G[Dab][Ala(4-THP)]DVYC[1Nal]F[Val(3-OH)][dK](DOTA)-OH; disulfide 3-11)",> 9.00
3,"CC(=O)N[C@@H](CCC(C)C)C(=O)N[C@@H](Cc1ccc(O)cc1)C(=O)N[C@H]1CSSC[C@@H](C(=O)N[C@@H](Cc2c[nH]c3ccc(F)cc23)C(=O)N[C@@H](Cc2ccccc2F)C(=O)N[C@H](C(=O)N[C@H](CCCCNC(=O)CN2CCN(CC(=O)O)CCN(CC(=O)O)CCN(CC(=O)O)CC2)C(=O)O)C(C)(C)O)NC(=O)[C@H](Cc2ccc(O)cc2)NC(=O)[C@H](C(C)C)NC(=O)[C@H](CC(=O)O)NC(=O)[C@H](CC2CCOCC2)NC(=O)[C@H](CC2CCNCC2)NC(=O)CNC(=O)[C@H](C(C)(C)C)NC1=O [compound 470, Ac-hLeu-Y-C-Tbg-G-PipAla-ThpA-D-V-Y-C-5FW-2FPhe-hydroxyVal-dLys(DOTA)-COOH] (Ac-[hLeu]YC[Tle]G[Ala(piperidin-4-yl)][Ala(4-THP)]DVYC[Trp(5-F)][Phe(2-F)][Val(3-OH)][dK](DOTA)-OH; disulfide 3-11)",> 9.00
4,"CC(=O)N[C@@H](CCC(C)C)C(=O)N[C@@H](Cc1ccc(O)cc1)C(=O)N[C@H]1CSSC[C@@H](C(=O)N[C@@H](Cc2c[nH]c3ccc(F)cc23)C(=O)N[C@@H](Cc2ccccc2)C(=O)N[C@H](C(=O)N[C@H](CCC(=O)O)C(N)=O)C(C)(C)O)NC(=O)[C@H](Cc2ccc(O)cc2)NC(=O)[C@H](C(C)C)NC(=O)[C@H](CC(=O)O)NC(=O)[C@H](CC2CCOCC2)NC(=O)[C@H](CC2CCN(C(=O)CCOCCOCCNC(=O)CN3CCN(CC(=O)O)CCN(CC(=O)O)CCN(CC(=O)O)CC3)CC2)NC(=O)CNC(=O)[C@H](C(C)(C)C)NC1=O [compound 474, Ac-hLeu-Y-C-Tbg-G-Pip(PEG2-DOTA)Ala-ThpA-D-V-Y-C-5FW-F-hydroxyVal-dGlu-CONH2] (Ac-[hLeu]YC[Tle]G[Ala(piperidin-4-yl)]([PEG2-DOTA])[Ala(4-THP)]DVYC[Trp(5-F)]F[Val(3-OH)][dE]-NH2; disulfide 3-11)",8.00 to 9.00
5,"CC(=O)N[C@@H](CCC1CCCCC1)C(=O)N[C@@H](Cc1ccc(O)cc1)C(=O)N[C@H]1CSSC[C@@H](C(=O)N[C@@H](Cc2c[nH]c3ccc(F)cc23)C(=O)N[C@@H](Cc2ccccc2)C(=O)N[C@H](C(=O)N[C@H](C)C(=O)O)C(C)(C)O)NC(=O)[C@H](Cc2ccc(O)cc2)NC(=O)[C@H](C(C)C)NC(=O)[C@H](CC(=O)O)NC(=O)[C@H](CC2CCOCC2)NC(=O)[C@H](CC2CCN(C(=O)CC[C@H](NC(=O)CC[C@H](NC(=O)CN3CCN(CC(=O)O)CCN(CC(=O)O)CCN(CC(=O)O)CC3)C(=O)O)C(=O)O)CC2)NC(=O)CNC(=O)[C@H](C(C)(C)C)NC1=O [compound 487, Ac-hCha-Y-C-Tbg-G-Pip(gE-gE-DOTA)Ala-ThpA-D-V-Y-C-5FW-F-hydroxyVal-dAla-COOH] (Ac-[hCha]YC[Tle]G[Ala(piperidin-4-yl)]([γGlu-γGlu-DOTA])[Ala(4-THP)]DVYC[Trp(5-F)]F[Val(3-OH)][dA]-OH; disulfide 3-11)",> 9.00
6,"CC(=O)N[C@@H](CCC(C)C)C(=O)N[C@@H](Cc1ccc(O)cc1)C(=O)N[C@H]1CSSC[C@@H](C(=O)N[C@@H](Cc2c[nH]c3ccc(C)cc23)C(=O)N[C@@H](Cc2ccccc2)C(=O)N[C@H](C(=O)N[C@H](CCCCNC(=O)CN2CCN(CC(=O)O)CCN(CC(=O)O)CCN(CC(=O)O)CC2)C(=O)O)C(C)(C)O)NC(=O)[C@H](Cc2ccc(O)cc2)NC(=O)[C@H](C(C)C)NC(=O)[C@H](CC(=O)O)NC(=O)[C@H](CC2CCOCC2)NC(=O)[C@H](CC2CCNCC2)NC(=O)CNC(=O)[C@H](C(C)(C)C)NC1=O [compound 471, Ac-hLeu-Y-C-Tbg-G-PipAla-ThpA-D-V-Y-C-5MeW-F-hydroxyVal-dLys(DOTA)-COOH] (Ac-[hLeu]YC[Tle]G[Ala(piperidin-4-yl)][Ala(4-THP)]DVYC[Trp(5-Me)]F[Val(3-OH)][dK](DOTA)-OH; disulfide 3-11)",8.00 to 9.00
